Test results from patent US20050020565A1, “CCK-1 receptor modulators” (priority 2003, published 2005).

Row | Compound | melting point
1 | CON(C)C(=O)c1ccc(Cl)c(Cl)c1 [Example 511, 3,4-Dichloro-N-methoxy-N-methyl-benzamide] | 39.5 to 43.2 °C
2 | COc1ccc(-n2nc(C[C@H](C(=O)[O-])c3cccc(C)c3)cc2-c2ccc(Cl)c(Cl)c2)cc1.[Na+] (stereo in doubt) [Example 505] | 280 to 285 °C
3 | COc1ccc(-n2nc(C[C@H](C(=O)[O-])c3cccc(C)c3)cc2-c2ccc(Cl)c(Cl)c2)cc1.[Na+] (stereo in doubt) [Example 1] | 295.5 to 297.5 °C
